Measured values: patent publication US20090105217A1, “2-PHENYL-5-AMINO-1,3,4-OXADIAZOLES AND THEIR USE AS NICOTINIC ACETYLCHOLINE RECEPTOR LIGANDS” (priority 2007, published 2009)

Molecular target: T1, human α7 nAChR (Homo sapiens, UniProt P36544)
T1 construct: host or cells: GH4C1 cells (pituitary tumor, immortalized cell line)
Assay: α7 nAChR FLIPR (Fluorometric Imaging Plate Reader) Ca2+ assay, agonist EC50
Type: cell-based
Conditions: GH4C1 cells stably transfected with human α7 nAChR; Fluo-4 Ca2+ fluorescence; Examples 194 to 205 tested as the HCl salt; read-out: pEC50 value (negative logarithm of the agonist EC50) (converted)
Description: α7 nAChR FLIPR® (Fluorometric Imaging Plate Reader) Assay
Function of the heterologous expressed α7 nAChR was assessed by a FLIPR-Ca^2+ assay. Since nAChRs are non-selective cation channels with high permeability to Ca^2+, these studies were carried out by measuring changes of intracellular Ca^2+ concentration using the Ca^2+-chelating fluorescent dye Fluo-4 and FLIPR® (Fluorometric Imaging Plate Reader) technology.
GH4C1cells (pituitary tumor, immortalized cell line) stably transfected with human α7 nAChR (Biocat ID 96986), were thawed, suspended in growth medium (Ham's Nutrient Mixture F10—Ham's F10, Invitrogen 31550-023, 15% Horse Serum heat inactivated—Invitrogen 26050-047, 2.5% Foetal Bovine Serum—FBS, Gibco 10500-064, 200 μg/ml Hygromycin B—Invitrogen, 10687-010, 10 mg/L Phenol Red—Sigma, P 0290, 1 mM Glutamine—Invitrogen, 25030-024) and plated in 500 cm^2 Triple Flask.
Cells were then incubated at 30° C., 5% CO2 for 72 hours.
On the day of the experiment, cells were washed twice with Assay Buffer (AB) (145 mM NaCl, 5 mM KCl, 1 mM MgCl2, 2 mM CaCl2, 20 mM HEPES, 5.5 mM Glucose pH=7.3) containing 2.5 mM Probenecid. Changes in the intracellular Ca^2+ content of stably transfected cells were measured using the Ca^2+ chelating dye Fluo-4 (Tef Labs 0152) in conjunction with a FLIPR® (Molecular Devices). The cell permeant dye Fluo-4 was prepared to a concentration of 1 mM in 100% DMSO and 10% Pluronic acid. The dye was then diluted with AB to a final concentration of 2 μM and placed on the cells. After 45-60 minutes dye loading incubation at 37° C., the unincorporated dye was removed from the cells by washing (80 μL, 3 times) with AB, and a final volume of 30 μL/well of AB was left in each well.
Plates containing test compounds (dissolved in 100% DMSO at 2 mM and serially diluted with DMSO) were copied into “daughter” plates (1 μL/well dispensation). Just prior to starting the assay, the “daughter” plate was diluted with 50 μL/well of AB.
The plates were then placed in the FLIPR®, and cell fluorescence was determined before drug addition (30 seconds) and monitored (excitation 488 nm, emission 510-580 nm) immediately following exposure to compounds. Maximum fluorescence values were recorded and fitted for agonist EC50 calculations.
The results are expressed as pEC50 values. A pEC50 is the negative logarithm of the agonist EC50 calculation as determined in the α7 nAChR FLIPR® assay. […] Variations in pEC50 may arise between tests.

T1 sequence (P36544 23-502): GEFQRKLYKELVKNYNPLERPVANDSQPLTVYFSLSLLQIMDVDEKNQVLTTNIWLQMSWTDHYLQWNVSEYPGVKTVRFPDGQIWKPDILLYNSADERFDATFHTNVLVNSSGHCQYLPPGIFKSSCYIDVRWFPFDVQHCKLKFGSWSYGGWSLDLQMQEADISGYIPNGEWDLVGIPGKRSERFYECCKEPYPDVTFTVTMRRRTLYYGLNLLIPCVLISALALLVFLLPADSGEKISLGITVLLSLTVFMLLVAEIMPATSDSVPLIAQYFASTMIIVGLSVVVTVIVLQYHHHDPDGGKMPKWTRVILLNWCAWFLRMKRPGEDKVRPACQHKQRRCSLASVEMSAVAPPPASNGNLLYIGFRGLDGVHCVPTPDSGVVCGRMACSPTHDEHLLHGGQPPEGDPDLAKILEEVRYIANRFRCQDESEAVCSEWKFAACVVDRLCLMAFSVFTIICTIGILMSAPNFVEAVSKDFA

Row | EC50 [nM] | SMILES
1 | ≤ 1000 | O=C(Nc1ccc(-c2nnc(NCCCN3CCCCC3)o2)c(F)c1)C1CCCCC1 [Example 53, N-[3-fluoro-4-(5-{[3-(1-piperidinyl)propyl]amino}-1,3,4-oxadiazol-2-yl)phenyl]cyclohexanecarboxamide]
2 | ≤ 100 | O=C(Nc1ccc(-c2nnc(NCCCCN3CCCCC3)o2)c(F)c1)C1CCCCC1 [Example 54, N-[3-fluoro-4-(5-{[4-(1-piperidinyl)butyl]amino}-1,3,4-oxadiazol-2-yl)phenyl]cyclohexanecarboxamide]
3 | ≤ 100 | O=C(Nc1ccc(-c2nnc(NCCCCN3CCCC3)o2)c(F)c1)C1CCCCC1 [Example 55, N-[3-fluoro-4-(5-{[4-(1-pyrrolidinyl)butyl]amino}-1,3,4-oxadiazol-2-yl)phenyl]cyclohexanecarboxamide]
4 | ≤ 1000 | O=C(Nc1ccc(-c2nnc(NCCCN3CCCC3)o2)c(F)c1)C1CCCCC1 [Example 56, N-[3-fluoro-4-(5-{[3-(1-pyrrolidinyl)propyl]amino}-1,3,4-oxadiazol-2-yl)phenyl]cyclohexanecarboxamide]
5 | ≤ 1000 | O=C(Nc1ccc(-c2nnc(NCCCCN3CCOCC3)o2)c(F)c1)C1CCCCC1 [Example 58, N-[3-fluoro-4-(5-{[4-(4-morpholinyl)butyl]amino}-1,3,4-oxadiazol-2-yl)phenyl]cyclohexanecarboxamide]
6 | ≤ 1000 | O=C(Nc1ccc(-c2nnc(NCCCN3CCCCC3)o2)c(C(F)(F)F)c1)C1CCCCC1 [Example 61, N-[4-(5-{[3-(1-piperidinyl)propyl]amino}-1,3,4-oxadiazol-2-yl)-3-(trifluoromethyl)phenyl]cyclohexanecarboxamide]
7 | ≤ 100 | O=C(Nc1ccc(-c2nnc(NCCCCN3CCCCC3)o2)c(C(F)(F)F)c1)C1CCCCC1 [Example 62, N-[4-(5-{[4-(1-piperidinyl)butyl]amino}-1,3,4-oxadiazol-2-yl)-3-(trifluoromethyl)phenyl]cyclohexanecarboxamide]
8 | ≤ 1000 | O=C(Nc1ccc(-c2nnc(NCCCN3CCCC3)o2)c(C(F)(F)F)c1)C1CCCCC1 [Example 63, N-[4-(5-{[3-(1-pyrrolidinyl)propyl]amino}-1,3,4-oxadiazol-2-yl)-3-(trifluoromethyl)phenyl]cyclohexanecarboxamide]
9 | ≤ 1000 | O=C(Nc1ccc(-c2nnc(NCCCCN3CCCC3)o2)c(C(F)(F)F)c1)C1CCCCC1 [Example 64, N-[4-(5-{[4-(1-pyrrolidinyl)butyl]amino}-1,3,4-oxadiazol-2-yl)-3-(trifiuoromethyl)phenyl]cyclohexanecarboxamide]
10 | ≤ 100 | COc1cc(NC(=O)c2ccccc2)ccc1-c1nnc(NCCCN2CCCCC2)o1 [Example 71, N-[3-(methyloxy)-4-(5-{[3-(1-piperidinyl)propyl]amino}-1,3,4-oxadiazol-2-yl)phenyl]benzamide]
11 | ≤ 1000 | COc1cc(NC(=O)C2CCCCC2)ccc1-c1nnc(NCCCN2CCCC2)o1 [Example 77, N-[3-(methyloxy)-4-(5-{[3-(1-pyrrolidinyl)propyl]amino}-1,3,4-oxadiazol-2-yl)phenyl]cyclohexanecarboxamide]
12 | ≤ 100 | COc1cc(NC(=O)C2CCCCC2)ccc1-c1nnc(NCCCCN2CCCC2)o1 [Example 78, N-[3-(methyloxy)-4-(5-{[4-(1-pyrrolidinyl)butyl]amino}-1,3,4-oxadiazol-2-yl)phenyl]cyclohexanecarboxamide]
13 | ≤ 1000 | COc1cc(NC(=O)C2CCCCC2)ccc1-c1nnc(NCCCN2CCOCC2)o1 [Example 79, N-[3-(methyloxy)-4-(5-{[3-(4-morpholinyl)propyl]amino}-1,3,4-oxadiazol-2-yl)phenyl]cyclohexanecarboxamide]
14 | ≤ 1000 | COc1cc(NC(=O)C2CCCCC2)ccc1-c1nnc(NCCCCN2CCOCC2)o1 [Example 80, N-[3-(methyloxy)-4-(5-{[4-(4-morpholinyl)butyl]amino}-1,3,4-oxadiazol-2-yl)phenyl]cyclohexanecarboxamide]
15 | ≤ 1000 | CCN(CC)CCCNc1nnc(-c2ccc(NC(=O)C3CCCCC3)cc2OC)o1 [Example 81, N-[4-(5-{[3-(diethylamino)propyl]amino}-1,3,4-oxadiazol-2-yl)-3-(methyloxy)phenyl]cyclohexanecarboxamide]

The remaining lines, values behind:

Row | SMILES | EC50 [nM]
16 | CCN(CC)CCCNc1nnc(-c2ccc(NC(=O)c3ccccc3F)cc2F)o1 [Example 50, N-[4-(5-{[3-(diethylamino)propyl]amino}-1,3,4-oxadiazol-2-yl)-3-fluorophenyl]-2-fluorobenzamide] | ≤ 1000
17 | CCN(CC)CCCCNc1nnc(-c2ccc(NC(=O)c3ccccc3F)cc2F)o1 [Example 51, N-[4-(5-{[4-(diethylamino)butyl]amino}-1,3,4-oxadiazol-2-yl)-3-fluorophenyl]-2-fluorobenzamide] | ≤ 1000
18 | CCN(CC)CCCCNc1nnc(-c2ccc(NC(=O)c3ccccc3F)cc2OC)o1 [Example 52, N-[4-(5-{[4-(diethylamino)butyl]amino}-1,3,4-oxadiazol-2-yl)-3-(methyloxy)phenyl]-2-fluorobenzamide] | ≤ 100
19 | CCN(CC)CCCNc1nnc(-c2ccc(NC(=O)C3CCCCC3)cc2F)o1 [Example 59, N-[4-(5-{[3-(diethylamino)propyl]amino}-1,3,4-oxadiazol-2-yl)-3-fluorophenyl]cyclohexanecarboxamide] | ≤ 1000
20 | CCN(CC)CCCCNc1nnc(-c2ccc(NC(=O)C3CCCCC3)cc2F)o1 [Example 60, N-[4-(5-{[4-(diethylamino)butyl]amino}-1,3,4-oxadiazol-2-yl)-3-fluorophenyl]cyclohexanecarboxamide] | ≤ 1000
21 | O=C(Nc1ccc(-c2nnc(NCCCCN3CCOCC3)o2)c(C(F)(F)F)c1)C1CCCCC1 [Example 66, N-[4-(5-{[4-(4-morpholinyl)butyl]amino}-1,3,4-oxadiazol-2-yl)-3-(trifluoromethyl)phenyl]cyclohexanecarboxamide] | ≤ 1000
22 | CCN(CC)CCCNc1nnc(-c2ccc(NC(=O)C3CCCCC3)cc2C(F)(F)F)o1 [Example 67, N-[4-(5-{[3-(diethylamino)propyl]amino}-1,3,4-oxadiazol-2-yl)-3-(trifluoromethyl)phenyl]cyclohexanecarboxamide] | ≤ 1000
23 | CCN(CC)CCCCNc1nnc(-c2ccc(NC(=O)C3CCCCC3)cc2C(F)(F)F)o1 [Example 68, N-[4-(5-{[4-(diethylamino)butyl]amino}-1,3,4-oxadiazol-2-yl)-3-(trifluoromethyl)phenyl]cyclohexanecarboxamide] | ≤ 1000
24 | O=C(Nc1ccc(-c2nnc(NCCCN3CCCC3)o2)cc1)c1ccccc1 [Example 69, N-[4-(5-{[3-(1-pyrrolidinyl)propyl]amino}-1,3,4-oxadiazol-2-yl)phenyl]benzamide] | ≤ 1000
25 | COc1cc(NC(=O)c2ccccc2)ccc1-c1nnc(NCCCN2CCCC2)o1 [Example 70, N-[3-(methyloxy)-4-(5-{[3-(1-pyrrolidinyl)propyl]amino}-1,3,4-oxadiazol-2-yl)phenyl]benzamide] | ≤ 1000
26 | COc1cc(NC(=O)c2ccccc2)ccc1-c1nnc(NCCCN2CCOCC2)o1 [Example 72, N-[3-(methyloxy)-4-(5-{[3-(4-morpholinyl)propyl]amino}-1,3,4-oxadiazol-2-yl)phenyl]benzamide] | ≤ 1000
27 | COc1cc(NC(=O)c2ccccc2)ccc1-c1nnc(NCCCCN2CCOCC2)o1 [Example 73, N-[3-(methyloxy)-4-(5-{[4-(4-morpholinyl)butyl]amino}-1,3,4-oxadiazol-2-yl)phenyl]benzamide] | ≤ 100
28 | CCN(CC)CCCNc1nnc(-c2ccc(NC(=O)c3ccccc3)cc2OC)o1 [Example 74, N-[4-(5-{[3-(diethylamino)propyl]amino}-1,3,4-oxadiazol-2-yl)-3-(methyloxy)phenyl]benzamide] | ≤ 1000
29 | CCN(CC)CCCCNc1nnc(-c2ccc(NC(=O)c3ccccc3)cc2OC)o1 [Example 75, N-[4-(5-{[4-(diethylamino)butyl]amino}-1,3,4-oxadiazol-2-yl)-3-(methyloxy)phenyl]benzamide] | ≤ 100
30 | COc1cc(NC(=O)c2ccccc2)ccc1-c1nnc(NCCCCN2CCCC2)o1 [Example 76, N-[3-(methyloxy)-4-(5-{[4-(1-pyrrolidinyl)butyl]amino}-1,3,4-oxadiazol-2-yl)phenyl]benzamide] | ≤ 100
